According to publication PMC10302299, “Spruce Balm-Based Semisolid Vehicles for Wound Healing: Effect of Excipients on Rheological Properties and Ex Vivo Skin Permeation” (Pharmaceutics, 2023):
Like-named read-outs stand apart in the source and are kept apart here. Values belong to the molecule of their own block, whether it stands above or below them.

Assays:
[1] = cited from earlier work
[2] = Ex vivo skin permeation, static Franz-type diffusion cells, HPLC-DAD relative quantification; type: in vitro ADME, porcine; settings: for total permeated amounts (AUC), comparison of the two ointments: after 32 h, lard ointment versus wool wax/castor oil ointment; for Enhancement Factor: mean flux from lard versus wool wax/castor oil; for Mean Flux Based on AUC/cm^2/h (relative mass flux): infinite dose 500 mg, 32 °C, n = 9 cells; for time after which detectable in acceptor samples: wool wax/castor oil and Picea-Salbe ointments
Protocol: Skin permeation studies were performed using dermatomed porcine ear skin and static Franz-type diffusion cells (PermeGear, Hellertown, PA, USA, permeation area of 0.95 cm^2, acceptor volume of 2 mL). Porcine ears were obtained after sacrifice from a local abattoir (Johann Gantner GmbH, Gemeinde Hollabrunn, Austria, male and female animals at six months of age). The ears were cleaned under running water and were dried and stored at −18 °C until use.
Fresh vehicles were prepared 48 h before the start of the experiments. Skin from the dorsal side of the ears was cut to a thickness of 400 µm with a dermatome (Aesculap GA 630 DBP, Aesculap AG, Tuttlingen, Germany). Hair was removed with scissors. The skin was cut into 1 × 1 cm pieces and was clamped between donor and acceptor chamber. The acceptor medium consisted of a mixture of phosphate-buffered saline and ethanol (60:40% v/v) to ensure sink conditions. The phosphate-buffered saline was prepared as described in the Pharmacopoeia Europaea (0.012 M, pH of 7.4, 0.238% w/w sodium monohydrogen phosphate, 0.019% w/w potassium dihydrogen phosphate, and 0.8% w/w sodium chloride). Before starting the experiments, the transepidermal water loss (TEWL) was measured with a closed-chamber device and a coupling adapter (Aquaflux® AF200, Biox Systems Ltd., London, UK) to ensure consistent skin quality and barrier function.
The ointments were applied to the donor chambers at infinite dose conditions (500 mg of formulation). The donor compartment and sampling arm were occluded with Parafilm to prevent evaporation of sample or acceptor fluid. The diffusion cells were kept in a water bath at 32 °C to simulate skin surface temperature. Magnetic stirring was employed to avoid concentration layers within the acceptor fluid. Cells were regularly checked for air bubbles. After predefined intervals (2, 4, 6, 8, 24, 28, and 32 h), an aliquot of 200 μL of acceptor medium was taken for analysis and was replaced with fresh acceptor medium at 32 °C.
The most suitable formulation was chosen for analysis of permeation potential as well as the commercial product Picea-Salbe®. Three individual permeation experiments with n = 3 cells were performed for formulations and controls. The final results depict mean values ± SDs of n = 9 cells per formulation. As controls, the respective ointment bases without PSB as well as the plain acceptor medium alone were used.
For the analysis of samples drawn from Franz diffusion cells, a Shimadzu HPLC instrumentation with diode array detection (SHIMADZU Autosampler SIL-20AC HAT, SHIMADZU Column Oven CTO-20AC, SHIMADZU Communications Bus Module CBM-20A, SHIMADZU Degasser DGU-20A5, SHIMADZU Diode Array Detector SPD-M20A, SHIMADZU Liquid Chromatograph LC-20AD, SHIMADZU LabSolutions Software 5.81, Shimadzu, Kyoto, Japan) was used. A reversed-phase C18 column (LiChrospher 100 RP18e, 5 μm, 250 × 4 mm, Merck KGaA, Darmstadt, Germany) was employed as stationary phase. Double-distilled water + 0.1% formic acid (solvent A) and acetonitrile + 0.1% formic acid (solvent B) served as mobile phase, and gradient elution at 1 mL/min flow rate was applied as follows: 15% solvent B rose to 95% solvent B within 45 min (rate of 1.77%/min) followed by 5 min washing step at 98% solvent B and re-equilibration for 10 min with 15% solvent B. Samples drawn from Franz diffusion cells were centrifuged, and 10 μL were injected into the system. PSB samples were dissolved in acetone to a final concentration of 5 mg/mL, and 2 μL were analyzed. […] Peak areas (AUC) were obtained using the SHIMADZU LabSolutions Software 5.81 (Shimadzu, Kyoto, Japan) and were further utilized for interpretation of data.

[3] = vehicle lard (Picea-Salbe, 20% spruce balm)
[4] = vehicle wool wax/castor oil with 20% PSB (batch PSB5)

Molecule: CC(C)c1ccc2c(c1)C(O)CC1[C@](C)(C(=O)O)CCC[C@]21C (some centres unmarked) [7-Hydroxy-dehydroabietic acid]
- Effects contributing to wound healing ([1]; Hydroxylated resin acids): re-epithelialization boosting [9], antimicrobial [22], and anti-inflammatory effects [23]

Molecule: CC(C)(O)c1ccc2c(c1)[C@H](O)CC1[C@](C)(C(=O)O)CCC[C@]21C (stereo partly drawn) [7α,15-Dihydroxy-dehydroabietic acid]
- Effects contributing to wound healing ([1]; Hydroxylated resin acids): re-epithelialization boosting [9], antimicrobial [22], and anti-inflammatory effects [23]

Molecule: CC(C)(O)c1ccc2c(c1)[C@@H](O)CC1[C@](C)(C(=O)O)CCC[C@]21C (stereo partly drawn) [7β,15-Dihydroxy-dehydroabietic acid]
- Effects contributing to wound healing ([1]; Hydroxylated resin acids): re-epithelialization boosting [9], antimicrobial [22], and anti-inflammatory effects [23]

- total permeated amounts (AUC), comparison of the two ointments [2]: a similar trend was observed
- Enhancement Factor [2]: 1.8
- Mean Flux Based on AUC/cm^2/h (relative mass flux) [2, 3]: 25.558 ± 9.673 AUC/cm^2/h
- Mean Flux Based on AUC/cm^2/h (relative mass flux) [2, 4]: 13.606 ± 6.196 AUC/cm^2/h
- time after which detectable in acceptor samples [2]: 24 h
Molecule: CC(C)(O)c1ccc2c(c1)CC[C@H]1[C@](C)(C(=O)O)CCC[C@]21C [15-hydroxy-dehydroabietic acid, 15-Hydroxy-dehydroabietic acid]
- Effects contributing to wound healing ([1]; Hydroxylated resin acids): re-epithelialization boosting [9], antimicrobial [22], and anti-inflammatory effects [23]

Molecule: CC(C)C1=CC2=CC[C@@H]3[C@](C)(CCC[C@@]3(C)C(=O)O)[C@H]2CC1 [Abietic acid]
- Effects contributing to wound healing ([1]; Diterpene resin acids (302 Da)): re-epithelialization boosting [9], antimicrobial [24, 25, 26, 27], anti-inflammatory [28, 29, 30], and antioxidant effects [31]

Molecule: O=C(O)/C=C/c1ccc(O)c(O)c1 [Caffeic acid]
- Effects contributing to wound healing ([1]; Hydroxycinnamic acids): antioxidant, antimicrobial, and anti-inflammatory effects [19]

Molecule: COc1cc(/C=C/C(=O)O)ccc1O [Ferulic acid]
- Effects contributing to wound healing ([1]; Hydroxycinnamic acids): antioxidant, antimicrobial, and anti-inflammatory effects [19]

Molecule: C=C[C@@]1(C)CC[C@H]2C(=CC[C@@H]3[C@]2(C)CCC[C@@]3(C)C(=O)O)C1 [Isopimaric acid]
- Effects contributing to wound healing ([1]; Diterpene resin acids (302 Da)): re-epithelialization boosting [9], antimicrobial [24, 25, 26, 27], anti-inflammatory [28, 29, 30], and antioxidant effects [31]

Molecule: CC(C)C1=CC[C@H]2C(=C1)CC[C@@H]1[C@]2(C)CCC[C@@]1(C)C(=O)O [Levopimaric acid]
- Effects contributing to wound healing ([1]; Diterpene resin acids (302 Da)): re-epithelialization boosting [9], antimicrobial [24, 25, 26, 27], anti-inflammatory [28, 29, 30], and antioxidant effects [31]

Molecule: CC(C)=C1C=C2CCC3C(C)(C(=O)O)CCCC3(C)C2CC1 (centres unmarked) [Neoabietic acid]
- Effects contributing to wound healing ([1]; Diterpene resin acids (302 Da)): re-epithelialization boosting [9], antimicrobial [24, 25, 26, 27], anti-inflammatory [28, 29, 30], and antioxidant effects [31]

Molecule: CC(C)C1=CC2=C(CC1)[C@@]1(C)CCC[C@@](C)(C(=O)O)[C@@H]1CC2 [Palustric acid]
- Effects contributing to wound healing ([1]; Diterpene resin acids (302 Da)): re-epithelialization boosting [9], antimicrobial [24, 25, 26, 27], anti-inflammatory [28, 29, 30], and antioxidant effects [31]

Molecule: C=C[C@@]1(C)C=C2CC[C@@H]3[C@](C)(CCC[C@@]3(C)C(=O)O)[C@H]2CC1 [Pimaric acid]
- Effects contributing to wound healing ([1]; Diterpene resin acids (302 Da)): re-epithelialization boosting [9], antimicrobial [24, 25, 26, 27], anti-inflammatory [28, 29, 30], and antioxidant effects [31]

Molecule: C=C[C@]1(C)C=C2CC[C@@H]3[C@](C)(CCC[C@@]3(C)C(=O)O)[C@H]2CC1 [Sandaracopimaric acid]
- Effects contributing to wound healing ([1]; Diterpene resin acids (302 Da)): re-epithelialization boosting [9], antimicrobial [24, 25, 26, 27], anti-inflammatory [28, 29, 30], and antioxidant effects [31]

Molecule: CC(C)c1ccc2c(c1)CC[C@H]1[C@](C)(C(=O)O)CCC[C@]21C [dehydroabietic acid, Dehydroabietic acid]
- total permeated amounts (AUC), comparison of the two ointments [2]: highly comparable
- Enhancement Factor [2]: 1.1
- Mean Flux Based on AUC/cm^2/h (relative mass flux) [2, 3]: 24.041 ± 7.099 AUC/cm^2/h
- Mean Flux Based on AUC/cm^2/h (relative mass flux) [2, 4]: 21.848 ± 7.791 AUC/cm^2/h
- time after which detectable in acceptor samples [2]: 8 h
- Effects contributing to wound healing ([1]; Diterpene resin acids (300 Da)): re-epithelialization boosting [9], anti-inflammatory [23], and antimicrobial effects [24]

Molecule: O=C(O)C=Cc1ccc(O)cc1 [p-Coumaric acid]
- Effects contributing to wound healing ([1]; Hydroxycinnamic acids): antioxidant, antimicrobial, and anti-inflammatory effects [19]

Molecule: Pinoresinol
- Effects contributing to wound healing ([1]; Lignans): antifungal [20], antioxidant, anti-inflammatory [21], and re-epithelialization boosting effects [9]
